For this assay, the target named is T1, human SARM1(50-724) (Homo sapiens, UniProt Q6SZW1).
T1 construct: 40 nM human SARM1(50-724)
T1 sequence (Q6SZW1 50-724): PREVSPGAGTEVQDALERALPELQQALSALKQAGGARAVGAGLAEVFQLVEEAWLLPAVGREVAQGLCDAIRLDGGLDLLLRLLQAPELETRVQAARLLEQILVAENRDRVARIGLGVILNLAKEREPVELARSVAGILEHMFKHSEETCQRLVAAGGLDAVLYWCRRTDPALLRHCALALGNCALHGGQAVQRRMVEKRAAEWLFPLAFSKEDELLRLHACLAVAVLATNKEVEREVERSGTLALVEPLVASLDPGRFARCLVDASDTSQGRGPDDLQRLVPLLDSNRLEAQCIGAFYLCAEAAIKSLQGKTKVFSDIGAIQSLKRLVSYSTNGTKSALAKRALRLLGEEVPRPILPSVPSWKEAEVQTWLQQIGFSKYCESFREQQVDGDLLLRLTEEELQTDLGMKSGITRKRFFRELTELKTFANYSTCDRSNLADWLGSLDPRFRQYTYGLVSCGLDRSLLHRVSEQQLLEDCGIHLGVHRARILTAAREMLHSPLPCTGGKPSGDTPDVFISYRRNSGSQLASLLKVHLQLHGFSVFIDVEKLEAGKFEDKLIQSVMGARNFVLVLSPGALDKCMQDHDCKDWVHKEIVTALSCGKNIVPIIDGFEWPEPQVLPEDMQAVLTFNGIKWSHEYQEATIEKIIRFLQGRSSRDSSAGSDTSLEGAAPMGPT
In words: SARM1 NADase biochemical assay (HPLC peak areas of NAD and NAM). Particulars: for IC50: dose-response, 1:3 serial dilution from 100 μM, 40 nM SARM1, 0.3 mM NMN, 20 μM NAD, 60 min rt.

Where [1] appears, read: 50 μM compound, NAD peak area, read-out: Avg NAD % inhibition at 50 μM.
The mark [2] stands for this setting: 50 μM compound, NAM peak area, read-out: Avg NAM % inhibition at 50 μM.
Setting [3] is: read-out: Avg NAD % inhibition at 50 μM.
Setting [4] is: read-out: Avg NAM % inhibition at 50 μM.

Read-outs that look alike come from different tables or passages of the source.

Broadly, the IC50 is the concentration at which inhibition is half-maximal. The inhibition is the drop in the measured response relative to a control, in per cent.

Compound “(S)-2-((1-(1-(Pyridin-4-yl)ethyl)-1H-pyrazol-3-yl)amino)acetonitrile and (R)-2-((1-(1-(Pyridin-4-yl)ethyl)-1H-pyrazol-3-yl)amino)acetonitrile [Example 7]” showed a half-inhibitory concentration (IC50) of 1 to 10 µM.

For the compound `O=S(=O)(Nc1ccn(Cc2ccncc2)n1)C(F)(F)F` [Example 88, 1,1,1-Trifluoro-N-(1-(pyridin-4-ylmethyl)-1H-pyrazol-3-yl)methanesulfonamide], the inhibition at 50 µM runs as follows: under setting [1], 0 to 50%; under setting [2], 0 to 50%.

`O=C(Nc1ccn(Cc2ccncc2)n1)c1ccc2c(c1)OCC2` [Example 38, N-(1-(Pyridin-4-ylmethyl)-1H-pyrazol-3-yl)-2,3-dihydrobenzofuran-6-carboxamide] had an IC50 of 1 to 10 µM.

`O=C(Nc1ccn(Cc2ccncc2)n1)c1ccccn1` [Example 61, N-(1-(Pyridin-4-ylmethyl)-1H-pyrazol-3-yl)picolinamide]: the inhibition at 50 µM was in the range of 0 to 50% under setting [1] and 0 to 50% under setting [2].

The compound `CC(C)Cn1ccc(C(C)c2ccncc2)n1` (racemic) [Example 11, (rac)-4-(1-(1-Isobutyl-1H-pyrazol-3-yl)ethyl)pyridine] registered a half-maximal inhibitory concentration (IC50) of 1 to 10 µM.

The compound `CN(CC(F)(F)F)c1ccn(Cc2ccncc2)n1` [Example 90, N-Methyl-1-(pyridin-4-ylmethyl)-N-(2,2,2-trifluoroethyl)-1H-pyrazol-3-amine] registered a 50% inhibitory concentration (IC50) of 10 to 100 µM.

Regarding `CC(c1ccncc1)n1ccc(N(C)c2nccs2)n1` (racemic) [Example 91, (rac)-N-Methyl-N-(1-(1-(pyridin-4-yl)ethyl)-1H-pyrazol-3-yl)thiazol-2-amine], the inhibition at 50 µM is 0 to 50% under setting [3] and 0 to 50% under setting [4].

As to `C[C@H](c1ccn(CC(F)(F)F)n1)c1ccncc1Cl` (single isomer, unassigned) [Example 113a], the IC50 lay in the range of 1 to 10 µM.

On to `COc1ccccc1C(=O)Nc1ccn(Cc2ccncc2)n1` [Example 44, 2-Methoxy-N-(1-(pyridin-4-ylmethyl)-1H-pyrazol-3-yl)benzamide], for which the inhibition at 50 µM is 0 to 50% under setting [3] and 0 to 50% under setting [4].

With `O=C(Nc1ccn(Cc2ccncc2)n1)c1csc(Cl)c1` [Example 66, 5-Chloro-N-(1-(pyridin-4-ylmethyl)-1H-pyrazol-3-yl)thiophene-3-carboxamide], the 50% inhibitory concentration (IC50) was in the range of 1 to 10 µM.

Regarding `CN(c1ccn(Cc2ccncc2)n1)S(=O)(=O)c1cccc(F)c1` [Example 77, 3-Fluoro-N-methyl-N-(1-(pyridin-4-ylmethyl)-1H-pyrazol-3-yl)benzenesulfonamide], the inhibition at 50 µM reads like this: under setting [3], 0 to 50%; under setting [4], 0 to 50%.

For the compound `CCCNc1ccn(Cc2ccncc2)n1` [Example 94, N-Propyl-1-(pyridin-4-ylmethyl)-1H-pyrazol-3-amine], the inhibition at 50 µM is, setting by setting: under setting [1], 0 to 50%; under setting [2], 0 to 50%.

`O=C(CCc1cc(F)ccc1F)Nc1ccn(Cc2ccncc2)n1` [Example 33, 3-(2,5-Difluorophenyl)-N-(1-(pyridin-4-ylmethyl)-1H-pyrazol-3-yl)propanamide]: the half-inhibitory concentration (IC50) was > 100 µM. The inhibition at 50 µM under setting [1] fell in the range of 51 to 100%. Also, under setting [2], the inhibition at 50 µM is 51 to 100%.

On to `CC(c1ccncc1)n1ccc(C=O)n1` (racemic) [Example 108, (rac)-1-[1-(Pyridin-4-yl)ethyl]-1H-pyrazole-3-carbaldehyde], for which the inhibition at 50 µM under setting [1] was 0 to 50% and the inhibition at 50 µM under setting [2] is 0 to 50%.

As to `O=S(=O)(Cc1ccccc1)Nc1ccn(Cc2ccncc2)n1` [Example 71, 1-Phenyl-N-(1-(pyridin-4-ylmethyl)-1H-pyrazol-3-yl)methanesulfonamide], the inhibition at 50 µM was 0 to 50% under setting [1] and 0 to 50% under setting [2].

In turn, “(R)-2-((1-(1-(Pyridin-4-yl)ethyl)-1H-pyrazol-3-yl)amino)acetonitrile and (S)-2-((1-(1-(pyridin-4-yl)ethyl)-1H-pyrazol-3-yl)amino)acetonitrile [Example 6]” gave a concentration for half-maximal inhibition (IC50) of 1 to 10 µM.

With `O=C(Nc1ccn(Cc2ccncc2)n1)c1ccc(C(F)(F)F)cc1` [Example 57, N-(1-(Pyridin-4-ylmethyl)-1H-pyrazol-3-yl)-4-(trifluoromethyl)benzamide], the inhibition at 50 µM by setting is: under setting [1], 0 to 50%; under setting [2], 0 to 50%.

Turning to `O=C(CCc1cccc(Cl)c1)Nc1ccn(Cc2ccncc2)n1` [Example 32, 3-(3-Chlorophenyl)-N-(1-(pyridin-4-ylmethyl)-1H-pyrazol-3-yl)propanamide], the inhibition at 50 µM under setting [1] lay in the range of 0 to 50% and the inhibition at 50 µM under setting [2] lay in the range of 0 to 50%.

For `N#CCn1ccc(Cc2ccncc2)n1` [Example 9, 2-(3-(Pyridin-4-ylmethyl)-1H-pyrazol-1-yl)acetonitrile], the half-inhibitory concentration (IC50) is 1 to 10 µM.

Turning to `N#Cc1ccc(C(=O)Nc2ccn(Cc3ccncc3)n2)cc1` [Example 52, 4-Cyano-N-(1-(pyridin-4-ylmethyl)-1H-pyrazol-3-yl)benzamide], the inhibition at 50 µM under setting [1] is 0 to 50% and the inhibition at 50 µM under setting [2] was in the range of 0 to 50%.

On to `CCNc1ccn(Cc2ccncc2)n1` [Example 85, N-Ethyl-1-(pyridin-4-ylmethyl)-1H-pyrazol-3-amine], for which the inhibition at 50 µM under setting [3] lay in the range of 0 to 50% and the inhibition at 50 µM under setting [4] was in the range of 0 to 50%.

`CC(=O)Nc1ccn(Cc2ccncc2)n1` [Example 87, N-(1-(Pyridin-4-ylmethyl)-1H-pyrazol-3-yl)acetamide]: the inhibition at 50 µM is, setting by setting: under setting [3], 0 to 50%; under setting [4], 0 to 50%.

For the compound `FC(F)(F)Cn1ccc(Cc2ccncc2)n1` [Example 20, 4-((1-(2,2,2-Trifluoroethyl)-1H-pyrazol-3-yl)methyl)pyridine], the IC50 is 1 to 10 µM.

`[2H]C([2H])([2H])C([2H])(c1ccncc1)c1ccn(CC(F)(F)F)n1` (racemic) [Example 80, (rac)-4-(1-(1-(2,2,2-Trifluoroethyl)-1H-pyrazol-3-yl)ethyl-1,2,2,2-d4)pyridine]: the IC50 was < 1 µM.

Turning to `CC1(C)Oc2ccc(C(=O)Nc3ccn(Cc4ccncc4)n3)cc2O1` [Example 72, 2,2-Dimethyl-N-(1-(pyridin-4-ylmethyl)-1H-pyrazol-3-yl)benzo[d][1,3]dioxole-5-carboxamide], the inhibition at 50 µM under setting [1] is 0 to 50% and the inhibition at 50 µM under setting [2] lay within 0 to 50%.

Take `CC(c1ccncc1)c1ccn(CC(F)F)n1` (racemic) [Example 18, (rac)-4-(1-(1-(2,2-Difluoroethyl)-1H-pyrazol-3-yl)ethyl)pyridine]: the IC50 was 1 to 10 µM.

On to `O=C(Cc1ccccc1)Nc1ccn(Cc2ccncc2)n1` [Example 36, 2-Phenyl-N-(1-(pyridin-4-ylmethyl)-1H-pyrazol-3-yl)acetamide], for which the inhibition at 50 µM runs as follows: under setting [3], 0 to 50%; under setting [4], 0 to 50%.

The compound `COc1ccc(S(=O)(=O)Nc2ccn(Cc3ccncc3)n2)cc1` [Example 74, 4-Methoxy-N-(1-(pyridin-4-ylmethyl)-1H-pyrazol-3-yl)benzenesulfonamide] registered an IC50 of 1 to 10 µM.

For the compound `[2H]C([2H])([2H])C(c1ccncc1)c1ccn(CC(F)(F)F)n1` (racemic) [Example 21, (rac)-4-(1-(1-(2,2,2-Trifluoroethyl)-1H-pyrazol-3-yl)ethyl-2,2,2-d3)pyridine], the IC50 fell in the range of 1 to 10 µM.

On to `O=C(CCc1cc(Cl)cc(Cl)c1)Nc1ccn(Cc2ccncc2)n1` [Example 35, 3-(3,5-Dichlorophenyl)-N-(1-(pyridin-4-ylmethyl)-1H-pyrazol-3-yl)propanamide], for which the inhibition at 50 µM was 0 to 50% under setting [1] and 0 to 50% under setting [2].

Turning to `FC(F)(F)Cn1ccc(C(Cl)c2ccncc2)n1` (racemic) [Example 81, (rac)-4-(Chloro(1-(2,2,2-trifluoroethyl)-1H-pyrazol-3-yl)methyl)pyridine], the IC50 lay in the range of 10 to 100 µM.

Turning to `FC(F)CNc1ccn(Cc2ccncc2)n1` [Example 3, N-(2,2-Difluoroethyl)-1-(pyridin-4-ylmethyl)-1H-pyrazol-3-amine], the IC50 was 1 to 10 µM.

As to `Cc1cc(Cc2ccncc2)nn1CC(F)(F)F` [Example 83, 4-((5-Methyl-1-(2,2,2-trifluoroethyl)-1H-pyrazol-3-yl)methyl)pyridine], the IC50 lay in the range of 10 to 100 µM.

Turning to `O=C(Nc1ccn(Cc2ccncc2)n1)c1cccc(O)c1` [Example 46, 3-Hydroxy-N-(1-(pyridin-4-ylmethyl)-1H-pyrazol-3-yl)benzamide], the inhibition at 50 µM is 0 to 50% under setting [1] and 0 to 50% under setting [2].

Turning to `N#Cc1ccccc1C(=O)Nc1ccn(Cc2ccncc2)n1` [Example 51, 2-Cyano-N-(1-(pyridin-4-ylmethyl)-1H-pyrazol-3-yl)benzamide], the inhibition at 50 µM by setting is: under setting [3], 0 to 50%; under setting [4], 0 to 50%.

On to `CC(c1ccncc1)c1ccn(CC(F)(F)F)n1` (racemic) [Example 24, (rac)-4-(1-(1-(2,2,2-Trifluoroethyl)-1H-pyrazol-3-yl)ethyl)pyridine], for which the IC50 was < 1 µM.
